Reference: patent US20250152552A1, “CANCER-CELL PROLIFERATION INHIBITOR AND CANCER-CELL-PROLIFERATION INHIBITION ENHANCER” (KYUSHU UNIVERSITY, NATIONAL UNIVERSITY CORPORATION, priority 2022, published 2025)

Legend:
[1] = tested on: MC38 mouse colon cancer cell line; experiment: Administration of EGC-M5 alone, subcutaneous MC38 tumor growth in mice (Comparative Example); type: in vivo; details: 16 days after transplantation; EGC-M5 5, 10, 20 and 30 mg/kg b.w. i.p. daily; vs control group, Tukey test
Description: After preparatory rearing, MC38 mouse colon cancer cell line was transplanted subcutaneously into the 6-weeks-old male C57BL/6 mice at an amount of 5.0×10^5 cells/mouse. Each group had 8 mice. EGC-M5 was dissolved in the PBS buffer containing 10% DMSO. 200 μL of EGC-M5 solution at a dose of 5 mg, 10 mg, 20 mg, and 30 mg/kg b.w. was intraperitoneally administered to the mice daily starting on day 4 after transplantation. The tumor volume was measured with the vernier calipers, and the growth of the tumor was evaluated with time.
Regarding to the mean (Mean) and the standard error (S.E.) of the tumor volume (natural logarithm) 16 days after transplantation, the significant difference between the control group (Control group) and the EGC-M5 administration group was assessed by Tukey's Multiple Comparison test.

[2] = mouse, oral administration; Biol. Pharm. Bull, 42, 212-221, 2019; cited from earlier work

O=C1CC[C@H](Cc2cc(O)cc(O)c2)O1 [EGC-M5, (R)-5-(3,5-dihydroxyphenyl)-γ-valerolactone]
tumor volume (natural logarithm) [1]: no significant differences were observed in the tumor volume values
conjugates detected in serum [2]: the sulfate conjugate and the glucuronic acid conjugate of the compound of 5-(3,5-dihydroxyphenyl)-γ-valerolactone are detected in the serum
